Here are results for one molecule from ChEMBL document CHEMBL1126203, “Synthesis and structure-activity relationships of a series of novel benzopyran-containing platelet activating factor antagonists” (J Med Chem, 1992).

For the test, the system named is Rattus norvegicus. As to the kind of experiment: Compounds were evaluated by intravenous administration along with 100 ug/kg of PAF in rat. It counts as functional.

As for `CCOC(=O)COc1cc(C(C)CCCc2ccc(F)cc2)cc2c1C1=C(CCN(CC(=O)NC)C1)C(C)(C)O2` (stereo unspecified), it took a dose of 0.6 mg/kg to reach the 50% effect level (ED50).
